The subject of this experiment is p44/42 MAPK. The experiment is described as follows: intracellular phospho-p44/42 MAPK by flow cytometry in ICAM-2 treated Jurkat cells. Format: cell-based, human. The following applies: chemical agents 10 μM, EDTA 1 mM; mAbs titrated prior to ICAM-2. The text has this:
A) Mean fluorescent intensity values (MFI) of ICAM-2-FITC (adhesion) and mAb24-Alexa633, (LFA-1, activation) in treated Jurkat cells (as above). Control unstimulated and/or compound pretreated values were subtracted. B) Top panel: Intracellular phospho-p44/42, MAPK detection as a function of ICAM-2, dose in Jurkat cells by flow cytometry (see Material and Methods). Mean fluorescent intensity values (MFI) were plotted±standard deviation (SD). Bottom panel: ICAM-2, treated Jurkat cells were stained for intracellular phospho-p44/42, MAPK as described above. mAbs to β2, and αL, integrins (10, μg/ml, 10, minutes) were titrated prior to ICAM-2, treatment as indicated and plotted for MFI±SD. C) ICAM-2, induced p44/42, MAPK activity is blocked by β2, and αL, integrin antibodies as determined by a p44/42 MAPK kinase assay. Conditions for induction and inhibition are as described above. Recombinant active p44/42, MAPK served as an internal positive control (denoted by “+”). D) Inhibition and activation profile for intracellular phospho-p44/42, by flow cytometry in the presences of chemical agents (10, μM), EDTA (1, mM), or PMA, ionomycin and ICAM-2, stimulus (as indicated above). MFI values±SD are plotted.
Intracellular and extracellular staining was performed as described (Perez and Nolan, 2002). Intracellular probes for active kinases were made by conjugating phospho-specific antibodies to the ALEXA FLUOR® dye series as described and used in phospho-protein optimized conditions (Perez and Nolan, 2002). Kinetic analyses was performed by direct application of fixation buffer in time synchronized 96-wells maintained at 37° C. Intracellular actin and microtubule staining was performed using phalloidin-Alexa633 and taxol-Alexa546 dyes (Molecular Probes). Adhesion and clustering assays were performed using ICAM-2-FITC as described in text. LFA-1 activation was assessed by either mAb24-Alexa633 or mAb24-Alexa546 conjugate, surface stained at 37° C. Flow cytometry data are representative of 3 independent experiments of 10^6 cells/sample. 10-50,000 events were collected and manually calibrated on a FACSCalibur™ machine. Data plotted in bar graph format is expressed as geometric mean fluorescence intensity (MFI) and normalized for isotype controls. Log ratios are defined as the MFI of stimulus to the MFI of unstimulated cells. Data was analyzed using Flowjo™ software (Treestar).
In general terms: In flow cytometry, cells or beads pass a laser one at a time.

For the compound `CN(C)CCCn1cc(C2=C(c3c[nH]c4ccccc34)C(=O)NC2=O)c2ccccc21` [bisindolymaleimide I], the “effect on ICAM-2 induced p44/42 MAPK phosphorylation” value is listed as “diminished”.
